Data as given in patent US12691112B2, “FGFR tyrosine kinase inhibitors for the treatment of urothelial carcinoma” (Janssen Pharmaceutica NV, priority 2019, dated 2026).

System: subjects with metastatic or surgically unresectable urothelial cancer
[1] = all-causality, 6 mg continuous, n = 78

Protocol: Study treatment was administered on 28-day cycles. […] Patients were randomized 1:1 to 28-day cycles to the following 2 regimens until a regimen was selected for further study: Regimen 1 (10 mg once daily intermittent (7 days on/7 days); Regimen 2 (6 mg once daily continuous). Randomization was stratified according to performance status (0 to 1 vs. 2), hemoglobin value (<10 vs. ≥10 g per dl), FGFR alteration type (mutation vs. fusion), prior treatment status (chemotherapy-resistant vs. chemotherapy naïve), and disease distribution (presence or absence of visceral [liver, lung, bone]metastases). Starting dose selection was based on phase 1 efficacy and tolerability.
Based on interim analysis and pharmacokinetic-pharmacodynamic modeling of serum phosphate levels, starting dose was increased to 8 mg per day continuous (Regimen 3). Thus, after interim analysis, this became a single-arm study. […] Treatment continued until disease progression or unacceptable adverse event(s) per investigator.
Safety was evaluated based on clinical laboratory tests, physical exams, electrocardiograms, and ophthalmology examinations. Adverse events and abnormalities were assessed by investigator and graded per NCI CTCAE v.4.0
Prophylactic measures were taken to minimize risk of common adverse events related to FGFR inhibition. To reduce risk of hyperphosphatemia, a low-phosphate diet was recommended for all patients (600 to 800 mg of dietary phosphate intake per day). To reduce the risk of skin effects, the application of alcohol-free emollient moisturizing cream and avoidance of unnecessary exposure to sunlight, soap, perfumed products, and hot baths was recommended. Patients were asked to keep their fingers and toes clean and nails trimmed to reduce risk of nail effects.
Additional ophthalmology examinations were performed if clinically indicated.

`COc1cc(OC)cc(N(CCNC(C)C)c2ccc3ncc(-c4cnn(C)c4)nc3c2)c1` [erdafitinib, N-(3,5-dimethoxy-phenyl)-N′-(1-methylethyl)-N-[3-(1-methyl-1H-pyrazol-4-yl)quinoxalin-6-yl]ethane-1,2-diamine] was tested, and the “Treatment-related Paronychia, grade 3” value (8 mg continuous, n = 99) was 3 (3) no. (%), the “Treatment-related Stomatitis, any grade” value (8 mg continuous, n = 99) was 54 (55) no. (%) and the “Treatment-related Stomatitis, grade 1” value (8 mg continuous, n = 99) was 19 (19) no. (%). The “Treatment-related Stomatitis, grade 2” value (8 mg continuous, n = 99) was 26 (26) no. (%), the “Treatment-related Stomatitis, grade 3” value (8 mg continuous, n = 99) was 9 (9) no. (%) and the “Treatment-related Vision blurred, any grade” value (8 mg continuous, n = 99) was 16 (16) no. (%). For the same molecule, the “Treatment-related Vision blurred, grade 1” value (8 mg continuous, n = 99) was 10 (10) no. (%), the “Treatment-related Vision blurred, grade 2” value (8 mg continuous, n = 99) was 6 (6) no. (%) and the “Treatment-related Vision blurred, grade 3” value (8 mg continuous, n = 99) was 0 no. (%). The “Treatment-related Weight decreased, any grade” value (8 mg continuous, n = 99) was 10 (10) no. (%), the “Treatment-related Weight decreased, grade 1” value (8 mg continuous, n = 99) was 5 (5) no. (%) and the “Treatment-related Weight decreased, grade 2” value (8 mg continuous, n = 99) was 5 (5) no. (%). For the same molecule, the “Treatment-related Weight decreased, grade 3” value (8 mg continuous, n = 99) was 0 no. (%), the “some type of eye disorder, regardless of relation to treatment” value (8 mg per day continuous) was 63% and the “treatment-related CSR grade ≥3 events” value (8 mg per day continuous) was 3%. The “treatment-related central serous retinopathy (CSR)” value (8 mg per day continuous) was 21%, the treatment-related dry skin (8 mg per day continuous) was 32% and the “treatment-related effects on the nails” value (8 mg per day continuous) was 52%. The “treatment-related effects on the skin” value (8 mg per day continuous) was 49%, the treatment-related hand-foot syndrome (8 mg per day continuous) was 22% and the treatment-related hyperphosphatemia (8 mg per day continuous) was 73%. For the same molecule, the treatment-related nail dystrophy (8 mg per day continuous) was 16%, the treatment-related onycholysis (8 mg per day continuous) was 16% and the “patients with grade ≥3 treatment-emergent adverse events” value (8 mg per day continuous group uptitrated to 9 mg per day) was 68%. For the same molecule, the “grade 1 or 2 events among patients with eye disorders” value (8 mg per day continuous, patients with eye disorders (n=62)) was 84%, the “Serious treatment-emergent: Dyspnea” value (10 mg intermittent, n = 33) was 2 (6) no. (%) and the “Serious treatment-emergent: Eye disorders” value (10 mg intermittent, n = 33) was 1 (3) no. (%). For the same molecule, the “Serious treatment-emergent: Gastrointestinal disorders” value (10 mg intermittent, n = 33) was 2 (6) no. (%), the “Serious treatment-emergent: Infections and infestations” value (10 mg intermittent, n = 33) was 2 (6) no. (%) and the “Serious treatment-emergent: Metabolism and nutrition disorders” value (10 mg intermittent, n = 33) was 1 (3) no. (%). For the same molecule, the “Serious treatment-emergent: Nervous system disorders” value (10 mg intermittent, n = 33) was 0 no. (%), the “Serious treatment-emergent: Renal and urinary disorders” value (10 mg intermittent, n = 33) was 1 (3) no. (%) and the “Serious treatment-emergent: Respiratory, thoracic, mediastinal disorders” value (10 mg intermittent, n = 33) was 4 (12) no. (%). The “Serious treatment-emergent: Urinary tract infection” value (10 mg intermittent, n = 33) was 0 no. (%), the “Serious treatment-emergent: Urosepsis” value (10 mg intermittent, n = 33) was 0 no. (%) and the “Total number of patients with serious treatment-emergent adverse events” value (10 mg intermittent, n = 33) was 14 (42) no. (%). The Hyperphosphatemia reported (Regimen 3) was 77%, the “hyperphosphatemia leading to dose reduction” value (Regimen 3) was 9% and the “hyperphosphatemia managed by dose interruption” value (Regimen 3) was 23%. For the same molecule, the “patients discontinued due to treatment-emergent adverse events” value (Regimen 3) was 13%, the “patients reporting treatment-emergent adverse events” value (Regimen 3) was “All patients” and the “patients who required dose reduction” value (Regimen 3) was 56%. The “patients with serious treatment-emergent adverse events” value (Regimen 3) was 39%, the “stomatitis leading to dose reduction” value (Regimen 3) was 16% and the “treatment-emergent adverse events grade 3 or 4” value (Regimen 3) was 67%. The “patients who required ≥1 dose reduction” value (Regimen 3, among 41 patients uptitrated to 9 mg per day) was 59%, the “central serious retinopathy events resolved” value (all unresolved events grade 1 or 2) was “Seventy-six percent” and the “Abdominal pain, any grade” value [1] was 14 no. For the same molecule, the “Abdominal pain, grade 1” value [1] was 7 no, the “Abdominal pain, grade 2” value [1] was 5 no and the “Abdominal pain, grade ≥ 3” value [1] was 2 no. The “Alanine aminotransferase increased, any grade” value [1] was 9 no, the “Alanine aminotransferase increased, grade 1” value [1] was 7 no and the “Alanine aminotransferase increased, grade 2” value [1] was 2 no. For the same molecule, the “Alanine aminotransferase increased, grade ≥ 3” value [1] was 0 no, the “Alopecia, any grade” value [1] was 10 no and the “Alopecia, grade 1” value [1] was 9 no. The “Alopecia, grade 2” value [1] was 1 no, the “Alopecia, grade ≥ 3” value [1] was 0 no and the “Anemia, any grade” value [1] was 13 no. For the same molecule, the “Anemia, grade 1” value [1] was 0 no, the “Anemia, grade 2” value [1] was 8 no and the “Anemia, grade ≥ 3” value [1] was 5 no. For the same molecule, the “Arthralgia, any grade” value [1] was 8 no, the “Arthralgia, grade 1” value [1] was 5 no and the “Arthralgia, grade 2” value [1] was 2 no. For the same molecule, the “Arthralgia, grade ≥ 3” value [1] was 1 no, the “Aspartate aminotransferase increased, any grade” value [1] was 9 no and the “Aspartate aminotransferase increased, grade 1” value [1] was 7 no. The “Aspartate aminotransferase increased, grade 2” value [1] was 2 no, the “Aspartate aminotransferase increased, grade ≥ 3” value [1] was 0 no and the “Asthenia, any grade” value [1] was 18 no. The “Asthenia, grade 1” value [1] was 5 no, the “Asthenia, grade 2” value [1] was 4 no and the “Asthenia, grade ≥ 3” value [1] was 9 no. The “Back pain, any grade” value [1] was 11 no, the “Back pain, grade 1” value [1] was 6 no and the “Back pain, grade 2” value [1] was 3 no. For the same molecule, the “Back pain, grade ≥ 3” value [1] was 2 no, the “Blood creatinine increased, any grade” value [1] was 6 no and the “Blood creatinine increased, grade 1” value [1] was 3 no. For the same molecule, the “Blood creatinine increased, grade 2” value [1] was 3 no, the “Blood creatinine increased, grade ≥ 3” value [1] was 0 no and the “Conjunctivitis, any grade” value [1] was 7 no. For the same molecule, the “Conjunctivitis, grade 1” value [1] was 4 no and the “Conjunctivitis, grade 2” value [1] was 2 no.
